Results reported in patent publication US7932262B2 (Novartis AG, priority 2006, dated 2011).
pEC50, pIC50: −log10 of the molar value. Read-outs that look alike come from different tables or passages of the source.

Key:
PC-3 cells = assay: Cell Proliferation Assay (Cell Titer Glo), PC-3 cell line; type: cell-based; settings: Homo sapiens
Method in brief: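 Cell Titer Glo luminescence, read after fresh medium replaced the dosing medium, gave viability of PC-3 cells plated at 1000 cells/well. Compounds, 1:3 serially diluted in DMSO at 500× and then in medium, were added after 3-5 h adhesion and incubated 3 days at 37° C.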

PDK1 kinase = target: T1, PDK1 kinase (Homo sapiens, UniProt O15530); assay: PDK1 Kinase Alpha Screen Assay; type: biochemical; settings: read-out: PDK1 IC50
T1 sequence (O15530 1-556): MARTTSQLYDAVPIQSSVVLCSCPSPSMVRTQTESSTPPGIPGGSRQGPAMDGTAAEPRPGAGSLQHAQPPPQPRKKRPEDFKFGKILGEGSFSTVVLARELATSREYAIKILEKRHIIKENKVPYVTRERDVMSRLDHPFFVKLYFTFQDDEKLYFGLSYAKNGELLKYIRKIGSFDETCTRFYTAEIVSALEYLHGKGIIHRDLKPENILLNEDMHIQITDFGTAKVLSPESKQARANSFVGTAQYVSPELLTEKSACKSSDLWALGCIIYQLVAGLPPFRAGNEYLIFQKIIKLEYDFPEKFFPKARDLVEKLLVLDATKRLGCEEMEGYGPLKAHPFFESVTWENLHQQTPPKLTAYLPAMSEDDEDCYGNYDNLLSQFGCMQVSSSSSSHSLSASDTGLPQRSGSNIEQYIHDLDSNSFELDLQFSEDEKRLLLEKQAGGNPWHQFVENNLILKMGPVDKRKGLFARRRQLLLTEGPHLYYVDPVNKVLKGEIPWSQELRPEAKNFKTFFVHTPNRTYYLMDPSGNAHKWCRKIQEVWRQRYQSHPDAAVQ
Method in brief: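 Kinase inhibition measured as loss of AlphaScreen signal from antibody recognition of phosphorylated biotin-PDK1-4 peptide. Reactions contain 10 uM ATP and 50 nM peptide, run 3-18 hours before EDTA quench and overnight bead development at room temperature.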

[1] = test system: pAkt308 (phosphorylation of Akt at T308) in PC-3 cells; assay: pAkt T308 ECL Assay in PC-3 cells; type: cell-based; settings: Homo sapiens, 6 h, six hours with compound, read-out: PAKT308 PC3 IC50
Experimental: VI. The pAkt^T308 ECL Assay Protocol
On Day 1, PC-3 cells were seeded at 15,000 cells/well in 100 μL/well ([…]) growth media into black-walled, clear bottom, poly-L-lysine coated plates. The cells were incubated overnight in a 37° C., 5% CO2 incubator.
On Day 2, a MSD ECL plate was blocked for two hours with 150 μL per well of 3% MSD blocker A.
Test compounds were diluted to 500× in DMSO and then were subjected to further serial dilution using a BioMek 2000 instrument. DMSO diluted compounds were then diluted into growth media and then added to the cell plates.
The cell plates incubated with compounds for six hours in a 37° C., 5% CO2 incubator after which the growth medium was removed and 55 μl of MSD lysis buffer was added to cell plates on ice. The plates were lysed on ice for five minutes followed by 15 minutes of vigorous shaking on a plate shaker at 4° C. The blocked MSD assay plates were washed twice with 1×MSD wash buffer followed by the addition of cell lysate as follows: 30 μl of cell lysate was added to the pAkt308 plates and 13 μl of lysate+12 μl lysis buffer was added to the tAkt plates. The plates were then sealed and shaken at 4° C. overnight.
On Day 3, the MSD plates were washed four times with 1×MSD wash buffer then, 25 μl/well of MSD SULFO-TAG antibodies diluted to 10 nM final concentration in 1% blocker. A buffer was added to the antibody diluent which was added to assay plates. The plates were then sealed and incubated at RT for 1.5 hour. The plates were then washed twice with 1×MSD wash buffer followed by the addition of 150 μl/well of 1.5×MSD read buffer. The plates were read immediately after the addition of read buffer using a Trilux instrument. […]

PC3MM cells = assay: Cell Proliferation Assay (Cell Titer Glo), PC3MM; type: cell-based; settings: cell proliferation, PC3MM cells; read-out: CPEC50 PC3MM
Method in brief: (§1)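 Following a 3-day compound exposure (37° C., 5% CO2) of A2780 or PC3MM cells plated at 1000 per well, viability was measured by Cell Titer Glo luminescence in fresh medium, read 10 min after reagent addition.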

A2780 cells = assay: Cell Proliferation Assay (Cell Titer Glo), A2780; type: cell-based; settings: Homo sapiens; cell proliferation, A2780 cells; read-out: CPEC50 A2780
Method in brief: as §1

[2] = PC-3, 72 h, PC-3 cells, 3 days incubation, read-out: CP EC50 PC3
[3] = PC-3, cell proliferation, PC3 cells, read-out: CPEC50 PC3

COc1cc(Nc2ncc3ccc(OC4CCNCC4)cc3n2)cc(OC)c1 [Compound 55, (3,5-Dimethoxy-phenyl)-[7-(piperidin-4-yloxy)-quinazolin-2-yl]-amine]
> 5.30: pEC50 (PC-3 cells; [2]) | pIC50 (PDK1 kinase) | pIC50 [1]

CC(C)NS(=O)(=O)c1ccc(Nc2ncc3ccc(OC4CCN(C(C)C)CC4)cc3n2)cc1 [Compound 58, N-Isopropyl-4-[7-(1-isopropyl-piperidin-4-yloxy)-quinazolin-2-ylamino]-benzenesulfonamide]
> 5.30: pEC50 (PC-3 cells; [2]) | pIC50 (PDK1 kinase) | pIC50 [1]

Fc1ccc(Nc2ncc3ccc(OC4CCNCC4)cc3n2)cc1 [Compound 59, (4-Fluoro-phenyl)-[7-(piperidin-4-yloxy)-quinazolin-2-yl]-amine]
> 5.30: pEC50 (PC-3 cells; [2]) | pIC50 (PDK1 kinase) | pIC50 [1]

CNS(=O)(=O)Cc1ccc(Nc2ncc3ccc(OC4CCN(C(C)C)CC4)cc3n2)cc1 [Compound 61, C-{4-[7-(1-Isopropyl-piperidin-4-yloxy)-quinazolin-2-ylamino]-phenyl}-N-methyl-methanesulfonamide]
> 5.30: pEC50 (PC-3 cells; [2]) | pIC50 (PDK1 kinase) | pIC50 [1]

CC(=O)Nc1ccc(Nc2ncc3ccc(OC4CCNCC4)cc3n2)cc1C [Compound 63, N-{2-Methyl-4-[7-(piperidin-4-yloxy)-quinazolin-2-ylamino]-phenyl}-acetamide]
> 5.30: pEC50 (PC-3 cells; [2]) | pIC50 (PDK1 kinase) | pIC50 [1]

O=S(=O)(NC1CC1)c1ccc(Nc2ncc3cccc(OC4CCNCC4)c3n2)cc1 [Compound 781, N-cyclopropyl-4-(8-(piperidin-4-yloxy)quinazolin-2-ylamino)benzenesulfonamide]
> 5.30: pEC50 (PC-3 cells; [3]) | pEC50 (PC3MM cells) | pEC50 (A2780 cells) | pIC50 (PDK1 kinase; PDK1 Kinase Alpha Screen Assay)

CC(C)N1CCC(Oc2ccc3cnc(Nc4ccc(S(N)(=O)=O)cc4)nc3c2)CC1 [Compound 794, 4-(7-(1-isopropylpiperidin-4-yloxy)quinazolin-2-ylamino)benzenesulfonamide]
> 5.30: pEC50 (PC-3 cells; [3]) | pEC50 (PC3MM cells) | pEC50 (A2780 cells) | pIC50 (PDK1 kinase; PDK1 Kinase Alpha Screen Assay)

CC(C)N1CCC(c2c(O)ccc3cnc(Nc4ccc(S(N)(=O)=O)cc4)nc23)CC1 [Compound 795, 4-(7-hydroxy-8-(1-isopropylpiperidin-4-yl)quinazolin-2-ylamino)benzenesulfonamide]
> 5.30: pEC50 (PC-3 cells; [3]) | pEC50 (PC3MM cells) | pEC50 (A2780 cells) | pIC50 (PDK1 kinase; PDK1 Kinase Alpha Screen Assay)

CC(C)NC(=O)c1ccc(Nc2ncc3cccc(OC4CCN(C(C)C)CC4)c3n2)cc1 [Compound 797, N-isopropyl-4-(8-(1-isopropylpiperidin-4-yloxy)quinazolin-2-ylamino)benzamide]
> 5.30: pEC50 (PC-3 cells; [3]) | pEC50 (PC3MM cells) | pEC50 (A2780 cells) | pIC50 (PDK1 kinase; PDK1 Kinase Alpha Screen Assay)

Cn1cc(-c2ccc3cnc(Nc4ccc(S(N)(=O)=O)cc4)nc3c2)cn1 [Compound 799, 4-(7-(1-methyl-1H-pyrazol-4-yl)quinazolin-2-ylamino)benzenesulfonamide]
> 5.30: pEC50 (PC-3 cells; [3]) | pEC50 (PC3MM cells) | pEC50 (A2780 cells) | pIC50 (PDK1 kinase; PDK1 Kinase Alpha Screen Assay)

NS(=O)(=O)c1ccc(Nc2ncc3ccc(-c4cccnc4F)cc3n2)cc1 [Compound 800, 4-(7-(2-fluoropyridin-3-yl)quinazolin-2-ylamino)benzenesulfonamide]
> 5.30: pEC50 (PC-3 cells; [3]) | pEC50 (PC3MM cells) | pEC50 (A2780 cells) | pIC50 (PDK1 kinase; PDK1 Kinase Alpha Screen Assay)

O=S(=O)(NCCN1CCCC1)c1ccc(Nc2ncc3cccc(OC4CCNCC4)c3n2)cc1 [Compound 810, 4-(8-(piperidin-4-yloxy)quinazolin-2-ylamino)-N-(2-(pyrrolidin-1-yl)ethyl)benzenesulfonamide]
> 5.30: pEC50 (PC-3 cells; [3]) | pEC50 (PC3MM cells) | pEC50 (A2780 cells) | pIC50 (PDK1 kinase; PDK1 Kinase Alpha Screen Assay)

CC(C)CN1CCC(Oc2cccc3cnc(Nc4ccc(S(N)(=O)=O)cc4)nc23)CC1 [Compound 816, 4-(8-(1-isobutylpiperidin-4-yloxy)quinazolin-2-ylamino)benzenesulfonamide]
> 5.30: pEC50 (PC-3 cells; [3]) | pEC50 (PC3MM cells) | pEC50 (A2780 cells) | pIC50 (PDK1 kinase; PDK1 Kinase Alpha Screen Assay)

COCCNc1ccc(-c2cccc3cnc(Nc4ccc(S(N)(=O)=O)cc4)nc23)cn1 [Compound 825, 4-(8-(6-(2-methoxyethylamlno)pyridin-3-yl)quinazoln-2-ylamino)benzenesulfonamide]
> 5.30: pEC50 (PC-3 cells; [3]) | pEC50 (PC3MM cells) | pEC50 (A2780 cells) | pIC50 (PDK1 kinase; PDK1 Kinase Alpha Screen Assay)

CN1CCN(c2ccc(-c3cccc4cnc(Nc5ccc(S(N)(=O)=O)cc5)nc34)cn2)CC1 [Compound 827, 4-(8-(6-(4-methylpiperazin-1-yl)pyridin-3-yl)quinazolin-2-ylamino)benzenesulfonamide]
> 5.30: pEC50 (PC-3 cells; [3]) | pEC50 (PC3MM cells) | pEC50 (A2780 cells) | pIC50 (PDK1 kinase; PDK1 Kinase Alpha Screen Assay)

NS(=O)(=O)c1ccc(Nc2ncc3cccc(-c4ccc(NCCN5CCCC5)nc4)c3n2)cc1 [Compound 830, 4-(8-(6-(2-(pyrrolidin-1-yl)ethylamino)pyridin-3-yl)-quinazolin-2-ylamino)benzenesulfonamide]
> 5.30: pEC50 (PC-3 cells; [3]) | pEC50 (PC3MM cells) | pEC50 (A2780 cells) | pIC50 (PDK1 kinase; PDK1 Kinase Alpha Screen Assay)

CN1CCC(Nc2ccc3cnc(Nc4ccc(S(N)(=O)=O)cc4)nc3c2)CC1 [Compound 843, 4-(7-(1-methylpiperidin-4-ylamino)quinazolin-2-ylamino)benzenesulfonamide]
> 5.30: pEC50 (PC-3 cells; [3]) | pEC50 (PC3MM cells) | pEC50 (A2780 cells) | pIC50 (PDK1 kinase; PDK1 Kinase Alpha Screen Assay)

NS(=O)(=O)c1ccc(Nc2ncc3cc(Br)cc(OC4CCNCC4)c3n2)cc1 [Compound 846, 4-(6-bromo-8-(piperidin-4-yloxy)quinazolin-2-ylamino)benzenesulfonamide]
> 5.30: pEC50 (PC-3 cells; [3]) | pEC50 (PC3MM cells) | pEC50 (A2780 cells) | pIC50 (PDK1 kinase; PDK1 Kinase Alpha Screen Assay)

NS(=O)(=O)c1ccc(Nc2ncc3cc(Br)cc(OC4CN5CCC4CC5)c3n2)cc1 (centres unmarked) [Compound 847, 4-(6-bromo-8-(quinuclidin-3-yloxy)quinazolin-2-ylamino)benzenesulfonamide]
> 5.30: pEC50 (PC-3 cells; [3]) | pEC50 (PC3MM cells) | pEC50 (A2780 cells) | pIC50 (PDK1 kinase; PDK1 Kinase Alpha Screen Assay)
